Measurements reported in patent US20090088380A1, “GHRH ANALOGS AND THERAPEUTIC USES THEREOF” (priority 2007, published 2009).
Where “and” joins values, the source holds several entries; their conditions need not be identical. Equal entries are not always repeated. Non-standard residues stand in square brackets, D forms with d. Residues, ends and D or L forms follow the SMILES beside them.

Key:
Rat Growth Hormone = assay: In vivo GH secretion in adult female Sprague-Dawley rats, single SC or IV injection, RIA
Method: In order to assess such use of the GHRH analogs, the following experiments were undertaken. More specially, the goal was to assess the pharmacodynamic and pharmacokinetic profiles and acute toxicity of GHRH analog #5 when administered once by subcutaneous or intravenous injection to female Sprague-Dawley rats followed by a 14-day observation period and the pharmacodynamic profile in a male Beagle dog when the GHRH analog was administered at escalating doses to the same dog by subcutaneous injection with at least 2-day washout period. The above GHRH analog is a variation of a synthetic acetate salt of an amidated synthetic 29-amino acid peptide that corresponds to the amino-terminal segment of the naturally-occurring human growth hormone—releasing hormone (GHRH) with four amino acid substitutions in positions 2, 10, 15, and 22.
Human GHRH analog #5 in 0.9% sodium chloride for injection USP was administered once either by intravenous (IV) or subcutaneous (SC) injection to female rats followed by a 14-day observation period, as shown in Table 2. Prior to administration, all dosing formulations were filtered using a 0.22 μm filter to ensure sterility. The actual amount of GHRH analog #5 administered was calculated and adjusted based on the animal's most recent body weight. Dosing started at approximately the same time each day, commencing at 9:00 am ±30 minutes.
For pharmacodynamic investigations, blood samples (approximately 1.3 ml) were collected from 2 animals per group per time point (maximum 3 time points/animal) via a jugular venipuncture at the following time points: […] All blood samples were collected into potassium EDTA tubes and centrifuged under refrigeration (2 to 8° C., 1500 g for 10 minutes).
Rat Growth Hormone Determination • Plasma GH was determined by Linco Diagnostic Services using their own kit. Linco's Rat Growth Hormone radioimmunoassay kit (RIA) (RGH-45HK) is intended for the quantitative determination of Rat Growth Hormone in serum, plasma, and tissue culture media. It is a completely homologous assay since the antibody was raised against recombinant Rat Growth Hormone and both the tracer and the standard are prepared with the same recombinant Rat Growth Hormone. The kit includes standards, antibody, tracer, quality controls, precipitating reagents and buffer necessary to complete a RIA. The assay was conducted under the following conditions: overnight; equilibrium incubation at room temperature; sample volume: 100 μl serum, plasma, or cell culture media. The label used was 125I-Rat Growth Hormone (20,000 CPM/tube).

[1] = tested on: malnourished subjects with CKD; assay: Phase II CKD: 24-hour urine collection, creatinine and urea clearance, GFR, PNA; type: in vivo, human; details: for Creatinine (24-hour urine): mean (SD) / Creatinine clearance: median / GFR: median / Urea (24-hour urine): mean (SD) / Urea clearance: mean (SD) / nPNA: mean (SD): ITT population
Method: Subjects collected 24-hour urine samples at screening, baseline (Days 0 to 1) and Days 28 to 29. All of the samples were analysed for creatinine and urea clearance (mL/min). The samples collected at baseline and on Day 28 were also analysed for proteinuria (Coumassie method), PNA, sodium, potassium, chloride, calcium and phosphate. GFR was calculated using the Cockcroft-Gault formula: […]

[2] = 1.0 mg/kg BW SC, in ng·min/mL (unit assumed)
[3] = 3.0 mg/kg BW IV, in ng·min/mL (unit assumed)
[4] = 3.0 mg/kg BW SC, in ng·min/mL (unit assumed)
[5] = GHRH vs placebo, Day 28, ANOVA for repeated measures

SMILES: CC[C@H](C)[C@H](NC(=O)[C@H](C)NC(=O)[C@H](CC(=O)O)NC(=O)[C@@H](C)NC(=O)[C@@H](N)Cc1ccc(O)cc1)C(=O)N[C@@H](Cc1ccccc1)C(=O)N[C@H](C(=O)N[C@@H](CC(N)=O)C(=O)N[C@@H](CO)C(=O)N[C@H](Cc1ccc(O)cc1)C(=O)N[C@@H](CCCNC(=N)N)C(=O)N[C@@H](CCCCN)C(=O)N[C@H](C(=O)N[C@@H](CC(C)C)C(=O)N[C@H](C)C(=O)N[C@@H](CCC(N)=O)C(=O)N[C@@H](CC(C)C)C(=O)N[C@@H](CO)C(=O)N[C@@H](C)C(=O)N[C@@H](CCCNC(=N)N)C(=O)N[C@@H](CCCCN)C(=O)N[C@@H](CCCCN)C(=O)N[C@@H](CC(C)C)C(=O)N[C@@H](CCC(N)=O)C(=O)N[C@@H](CC(=O)O)C(=O)N[C@H](C(=O)N[C@@H](CCSC)C(=O)N[C@@H](CO)C(=O)N[C@@H](CCCNC(=N)N)C(N)=O)[C@@H](C)CC)C(C)C)[C@@H](C)O [GHRH analog #5, [D-Ala^2, D-Tyr^10, D-Ala^15, Lys^22] hGHRH(1-29)-NH2] (H-Y[dA]DAIFTNS[dY]RKVL[dA]QLSARKKLQDIMSR-NH2)
- Plasma Rat Growth Hormone (Rat Growth Hormone; 0.3 mg/kg BW SC, −120 min): 20.7 ng/mL
- Plasma Rat Growth Hormone (Rat Growth Hormone; 1.00 mg/kg BW SC, 15 min): 270.0 ng/mL
- Plasma Rat Growth Hormone (Rat Growth Hormone; 1.00 mg/kg BW SC, 30 min): 155.85 ng/mL
- Plasma Rat Growth Hormone (Rat Growth Hormone; 1.00 mg/kg BW SC, 60 min): 24.35 ng/mL
- Plasma Rat Growth Hormone (Rat Growth Hormone; 1.00 mg/kg BW SC, 120 min): 15.85 ng/mL
- Plasma Rat Growth Hormone (Rat Growth Hormone; 1.00 mg/kg BW SC, 300 min): 28.85 ng/mL
- GH AUC 120 min (Rat Growth Hormone; [2]): 10425
- GH AUC 300 min (Rat Growth Hormone; [2]): 14448
- Plasma Rat Growth Hormone (Rat Growth Hormone; 1.00 mg/kg BW SC, −120 min): 88.95 ng/mL
- Plasma Rat Growth Hormone (Rat Growth Hormone; 3.0 mg/kg BW IV, 4 min): 38.7 ng/mL
- Plasma Rat Growth Hormone (Rat Growth Hormone; 3.0 mg/kg BW IV, 10 min): 36.95 ng/mL
- Plasma Rat Growth Hormone (Rat Growth Hormone; 3.0 mg/kg BW IV, 15 min): 83.65 ng/mL
- Plasma Rat Growth Hormone (Rat Growth Hormone; 3.0 mg/kg BW IV, 45 min): 41.6 ng/mL
- Plasma Rat Growth Hormone (Rat Growth Hormone; 3.0 mg/kg BW IV, 300 min): 56.7 ng/mL
- GH AUC 45 min (Rat Growth Hormone; [3]): 2384
- GH AUC 300 min (Rat Growth Hormone; [3]): 14299
- Plasma Rat Growth Hormone (Rat Growth Hormone; 3.0 mg/kg BW IV, −120 min): 48.6 ng/mL
- Plasma Rat Growth Hormone (Rat Growth Hormone; 3.00 mg/kg BW SC, 15 min): 453.0 ng/mL
- Plasma Rat Growth Hormone (Rat Growth Hormone; 3.00 mg/kg BW SC, 30 min): 181.55 ng/mL
- Plasma Rat Growth Hormone (Rat Growth Hormone; 3.00 mg/kg BW SC, 60 min): 59.4 ng/mL
- Plasma Rat Growth Hormone (Rat Growth Hormone; 3.00 mg/kg BW SC, 120 min): 4.45 ng/mL
- Plasma Rat Growth Hormone (Rat Growth Hormone; 3.00 mg/kg BW SC, 300 min): 47.9 ng/mL
- GH AUC 120 min (Rat Growth Hormone; [4]): 15562
- GH AUC 300 min (Rat Growth Hormone; [4]): 20273
- Plasma Rat Growth Hormone (Rat Growth Hormone; 3.00 mg/kg BW SC, −120 min): 20.05 ng/mL
- GH secretion compared with natural hGHRH(1-44)NH2 (pulse amplitude and AUC) (Rat Growth Hormone; rat): twice larger
- In vivo potency compared with the natural 44 amino acid GHRH (Rat Growth Hormone; rat and dog): at least two times more potent in vivo
- Somatotroph desensitization (Rat Growth Hormone; rat, highest single IV dose): induced transient somatotroph desensitization
- GH secretion into peripheral blood, dose dependence (Rat Growth Hormone; rat, intravenous and subcutaneous): dose-dependent response
- Time of peak GH secretion (Rat Growth Hormone; rat, intravenous injection): 4 to 10 min
- Time of peak GH secretion (Rat Growth Hormone; rat, single subcutaneous injection): 10 to 15 min
- Creatinine (24-hour urine): mean (SD) ([1]; Baseline): 10.44 (5.10) mmol/24 hours
- Creatinine clearance: median ([1]; Baseline): 24.92 mL/min/1.73 m^−2
- GFR: median ([1]; Baseline): 19.37 ml/min/1.73 m^−2
- Urea (24-hour urine): mean (SD) ([1]; Baseline): 343.53 (170.39) mmol/24 hours
- Urea clearance: mean (SD) ([1]; Baseline): 11.858 (5.820) mL/min/1.73 m^−2
- nPNA: mean (SD) ([1]; Baseline): 2.3648 (1.1530) g/kg body weight/24 h
- Mean urea clearance rate ([1]; Day 28): 11.24 mL/min/1.73 m^−2
- Median GFR ([1]; Day 28): 18.23 mL/min/1.73 m^−2
- Median creatinine clearance ([1]; Day 28): 23.78 mL/min/1.73 m^−2
- Creatinine (24-hour urine): mean (SD) ([1]; Day 28): 9.68 (3.29) mmol/24 hours
- Creatinine clearance: median ([1]; Day 28): 23.78 mL/min/1.73 m^−2
- GFR: median ([1]; Day 28): 18.23 ml/min/1.73 m^−2
- Urea (24-hour urine): mean (SD) ([1]; Day 28): 235.87 (88.51) mmol/24 hours
- Urea clearance: mean (SD) ([1]; Day 28): 11.244 (4.200) mL/min/1.73 m^−2
- nPNA: mean (SD) ([1]; Day 28): 1.6198 (0.5892) g/kg body weight/24 h
- Urea clearance: adjusted difference or comparison [1, 5]: 2.28 mL/min/1.73 m^−2
- nPNA: adjusted difference or comparison [1, 5]: −0.553 g/kg body weight/24 h
- nPNA: mean value ([1]; after decrease (day 28)): 1.6198 g/kg body weight/24 h
- Mean urea clearance rate ([1]; baseline): 11.86 mL/min/1.73 m^−2
- Median GFR ([1]; baseline): 19.37 mL/min/1.73 m^−2
- Median creatinine clearance ([1]; baseline): 24.92 mL/min/1.73 m^−2
- nPNA: mean value ([1]; before decrease (baseline)): 2.3648 g/kg body weight/24 h
- Urea clearance: adjusted mean difference between GHRH and placebo arm ([1]; day 28): 2.28 ml/min/1.73 m^2
- nPNA: adjusted mean difference between GHRH and placebo arm ([1]; day 28): −0.553 g/kg body weight/24 h
- GFR: improvement against baseline, one patient ([1]; one patient): 78.56%
- Creatinine clearance: improvement against baseline, individual patients ([1]; two patients): 124.63% and 115.65%
- Urea clearance: improvement against baseline, individual patients ([1]; two patients, listed as GHRH(1-29)NH2 synthetic analog): 123.99% and 103.49%
